# Data published in patent US12171801B2, “Compositions and related methods for controlling vector-borne diseases” (priority 2017, dated 2024).
# Entries after “also recorded” stand apart in the source; their conditions may differ.
# Legend:
# [1] = test system: Escherichia coli DH5a; assay: Antibiotic coating and penetration of corn kernels (E. coli growth on LB plates); type: cell-based; conditions: kernels soaked in 2.5 or 0.25 mg/ml
# [2] = test system: Sitophilus primary endosymbiont (SPE, Candidatus Sodalis pierantonius); assay: Sitophilus primary endosymbiont (SPE) level by qPCR in weevils; type: in vivo, Sitophilus zeamais; conditions: for SPE amount, water-treated weevils versus treated (F0): 18 days of treatment
# Description: Sitophilus maize weevils (Sitophilus zeamais) were reared on organic corn at 27.5° C. and 70% relative humidity. Prior to being used for weevil rearing, corn was frozen for 7 days and then tempered to 10% humidity with sterile water. […] Ciprofloxacin (Sigma) stock solutions were made at 25 mg/ml in 0.1 N HCl, sterilized by passing through a 0.22 μm syringe filter, and stored at −20° C. For treatments, the appropriate amount of stock solution was diluted in sterile water.
# (§1) Weevil survival was monitored daily for 18 days, after which DNA was extracted from the remaining weevils in each group. Briefly, the weevil body was surface sterilized by dipping the weevil into a 6% bleach solution for approximately 5 seconds. Weevils were then rinsed in sterile water and DNA was extracted from each individual aphid using a DNA extraction kit (Qiagen, DNeasy kit) according to manufacturer's instructions. […]; SEQ ID NO: 243). […]; SEQ ID NO: 245) (Login et al., 2011). qPCR was performed using a qPCR amplification ramp of 1.6 degrees C./s and the following conditions: 1) 95° C. for 10 minutes, 2) 95° C. for 15 seconds, 3) 57° C. for 30 seconds, 4) repeat steps 2-3 40×, 5) 95° C. for 15 seconds, 6) 55° C. for 1 minute, 7) ramp change to 0.15 degrees C./s, 8) 95° C. for 1 second. qPCR data was analyzed using analytic (Thermo Fisher Scientific, QuantStudio Design and Analysis) software.
# [3] = test system: Sitophilus zeamais; assay: Weevil survival; type: in vivo; conditions: 250 μg/ml or 2.5 mg/ml, 18 days
# From the text: as §1
# [4] = test system: Sitophilus zeamais; assay: Development of F1 weevils in dissected corn kernels; type: in vivo; conditions: 250 ug/ml and 2.5 mg/ml
# [5] = test system: Sitophilus zeamais; assay: Emergence of F1 weevils (fecundity); conditions: 2.5 mg/ml, till day 43
compound,measurement,setting,value
O=C(O)c1cn(C2CC2)c2cc(N3CCNCC3)c(F)cc2c1=O [ciprofloxacin],E. coli growth on plates with entire soaked corn kernels,[1],inhibition of bacterial growth; also recorded: no bacteria grew
same,"SPE amount, water-treated weevils versus treated (F0)",[2]; 250 ug/ml,approximately 4 fold higher
same,"SPE amount, water-treated weevils versus treated (F0)",[2]; 2.5 mg/ml,~8 fold higher
same,"SPE level, water-treated F1 weevils versus treated","[2]; 2.5 mg/ml, F1 weevils dissected from corn kernels",approximately 4 fold higher
same,weevil survival,[3],all weevils remained alive
same,development of F1 weevils,[4],delay in development
same,emerged F1 offspring,[5],much less offspring
